# Results reported in ChEMBL document CHEMBL1201862, “PubChem BioAssay data set” (2004).
# Calls of active or inactive are those of the source.
# Experiments:
# [1] = molecular target: Peroxisome proliferator-activated receptor gamma/Nuclear receptor coactivator 3 (Homo sapiens, UniProt P37231); assay: (§1) TR-FRET dose response biochemical High Throughput Screening assay for agonists of the steroid receptor coactivator 3 (SRC-3) recruitment by the peroxisome proliferator-activated receptor gamma (PPAR gamma): non-selective agonists. [Related pubchem assays: 1301 (Confirmation screen.), 1048 (Primary screen.)]; assay type: functional
# Chain of Peroxisome proliferator-activated receptor gamma/Nuclear receptor coactivator 3 (P37231 whole entry): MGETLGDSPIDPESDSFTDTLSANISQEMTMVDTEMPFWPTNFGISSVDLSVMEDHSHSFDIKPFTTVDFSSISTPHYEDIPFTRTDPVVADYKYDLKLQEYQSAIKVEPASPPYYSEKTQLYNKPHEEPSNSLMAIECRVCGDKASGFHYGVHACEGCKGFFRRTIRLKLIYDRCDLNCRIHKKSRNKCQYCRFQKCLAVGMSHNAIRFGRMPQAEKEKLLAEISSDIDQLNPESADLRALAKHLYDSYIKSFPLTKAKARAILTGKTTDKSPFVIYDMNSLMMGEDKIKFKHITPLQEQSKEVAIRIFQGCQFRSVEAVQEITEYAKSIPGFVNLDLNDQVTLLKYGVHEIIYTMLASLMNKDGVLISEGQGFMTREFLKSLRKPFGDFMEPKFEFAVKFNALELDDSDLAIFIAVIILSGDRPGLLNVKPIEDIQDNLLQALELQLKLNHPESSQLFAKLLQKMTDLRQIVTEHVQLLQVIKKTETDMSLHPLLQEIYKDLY
# Chain of Peroxisome proliferator-activated receptor gamma/Nuclear receptor coactivator 3 (Q9Y6Q9 whole entry, further chain): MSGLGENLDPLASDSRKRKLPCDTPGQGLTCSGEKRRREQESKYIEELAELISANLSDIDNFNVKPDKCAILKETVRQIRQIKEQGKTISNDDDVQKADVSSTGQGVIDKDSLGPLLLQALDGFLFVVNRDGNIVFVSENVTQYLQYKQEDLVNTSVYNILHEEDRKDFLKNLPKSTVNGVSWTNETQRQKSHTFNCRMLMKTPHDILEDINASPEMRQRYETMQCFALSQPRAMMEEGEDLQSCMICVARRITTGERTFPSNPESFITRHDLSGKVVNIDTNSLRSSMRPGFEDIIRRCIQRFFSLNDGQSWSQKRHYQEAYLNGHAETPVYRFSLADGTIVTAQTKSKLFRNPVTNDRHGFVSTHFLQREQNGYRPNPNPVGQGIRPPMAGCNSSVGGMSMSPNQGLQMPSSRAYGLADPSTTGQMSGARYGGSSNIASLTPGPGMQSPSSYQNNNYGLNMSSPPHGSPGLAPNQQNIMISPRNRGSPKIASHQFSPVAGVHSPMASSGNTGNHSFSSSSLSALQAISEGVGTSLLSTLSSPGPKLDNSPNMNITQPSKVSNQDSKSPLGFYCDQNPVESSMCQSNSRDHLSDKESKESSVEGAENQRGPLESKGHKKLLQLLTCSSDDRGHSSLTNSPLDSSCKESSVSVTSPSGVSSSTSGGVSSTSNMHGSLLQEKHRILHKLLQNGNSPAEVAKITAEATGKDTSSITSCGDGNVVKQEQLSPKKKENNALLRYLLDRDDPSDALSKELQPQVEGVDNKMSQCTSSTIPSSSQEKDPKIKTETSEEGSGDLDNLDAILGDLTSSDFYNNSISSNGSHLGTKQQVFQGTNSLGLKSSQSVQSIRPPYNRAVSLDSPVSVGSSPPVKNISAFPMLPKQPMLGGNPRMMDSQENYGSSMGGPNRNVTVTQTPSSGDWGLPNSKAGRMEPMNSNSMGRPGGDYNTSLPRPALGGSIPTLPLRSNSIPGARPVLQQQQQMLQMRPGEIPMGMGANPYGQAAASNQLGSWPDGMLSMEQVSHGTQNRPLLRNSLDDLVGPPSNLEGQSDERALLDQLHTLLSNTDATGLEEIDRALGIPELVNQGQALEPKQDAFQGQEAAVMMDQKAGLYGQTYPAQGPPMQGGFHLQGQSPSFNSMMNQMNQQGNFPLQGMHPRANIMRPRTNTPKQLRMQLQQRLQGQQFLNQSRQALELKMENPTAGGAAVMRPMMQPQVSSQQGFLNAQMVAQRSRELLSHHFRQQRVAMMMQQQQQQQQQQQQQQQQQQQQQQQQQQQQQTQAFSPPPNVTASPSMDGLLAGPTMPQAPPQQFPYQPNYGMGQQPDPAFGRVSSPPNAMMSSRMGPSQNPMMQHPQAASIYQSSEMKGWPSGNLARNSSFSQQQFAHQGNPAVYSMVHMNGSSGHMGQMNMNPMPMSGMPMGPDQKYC
# [2] = molecular target: Peroxisome proliferator-activated receptor gamma/Nuclear receptor coactivator 1 (Homo sapiens, UniProt P37231); assay: as §1, with “1 (SRC-1)” for “3 (SRC-3)”, “assays (depositor defined):AID1300, AID1808, AID504735, AID631]” for “assays: 1301 (Confirmation screen.), 1048 (Primary screen.)]”; assay type: protein assay
# [3] = molecular target: Peroxisome proliferator-activated receptor gamma/Nuclear receptor coactivator 2 (Homo sapiens, UniProt P37231); assay: TR-FRET dose response biochemical High Throughput Screening assay for agonists of the steroid receptor coactivator 2 (SRC-2) recruitment by the peroxisome proliferator-activated receptor gamma (PPAR gamma): non-selective agonists. [Related pubchem assays: 1297, 1032 ]; assay type: functional
# Chain of Peroxisome proliferator-activated receptor gamma/Nuclear receptor coactivator 2 (P37231 whole entry): as the sequence (P37231 whole entry) above
# Chain of Peroxisome proliferator-activated receptor gamma/Nuclear receptor coactivator 2 (Q15596 whole entry, further chain): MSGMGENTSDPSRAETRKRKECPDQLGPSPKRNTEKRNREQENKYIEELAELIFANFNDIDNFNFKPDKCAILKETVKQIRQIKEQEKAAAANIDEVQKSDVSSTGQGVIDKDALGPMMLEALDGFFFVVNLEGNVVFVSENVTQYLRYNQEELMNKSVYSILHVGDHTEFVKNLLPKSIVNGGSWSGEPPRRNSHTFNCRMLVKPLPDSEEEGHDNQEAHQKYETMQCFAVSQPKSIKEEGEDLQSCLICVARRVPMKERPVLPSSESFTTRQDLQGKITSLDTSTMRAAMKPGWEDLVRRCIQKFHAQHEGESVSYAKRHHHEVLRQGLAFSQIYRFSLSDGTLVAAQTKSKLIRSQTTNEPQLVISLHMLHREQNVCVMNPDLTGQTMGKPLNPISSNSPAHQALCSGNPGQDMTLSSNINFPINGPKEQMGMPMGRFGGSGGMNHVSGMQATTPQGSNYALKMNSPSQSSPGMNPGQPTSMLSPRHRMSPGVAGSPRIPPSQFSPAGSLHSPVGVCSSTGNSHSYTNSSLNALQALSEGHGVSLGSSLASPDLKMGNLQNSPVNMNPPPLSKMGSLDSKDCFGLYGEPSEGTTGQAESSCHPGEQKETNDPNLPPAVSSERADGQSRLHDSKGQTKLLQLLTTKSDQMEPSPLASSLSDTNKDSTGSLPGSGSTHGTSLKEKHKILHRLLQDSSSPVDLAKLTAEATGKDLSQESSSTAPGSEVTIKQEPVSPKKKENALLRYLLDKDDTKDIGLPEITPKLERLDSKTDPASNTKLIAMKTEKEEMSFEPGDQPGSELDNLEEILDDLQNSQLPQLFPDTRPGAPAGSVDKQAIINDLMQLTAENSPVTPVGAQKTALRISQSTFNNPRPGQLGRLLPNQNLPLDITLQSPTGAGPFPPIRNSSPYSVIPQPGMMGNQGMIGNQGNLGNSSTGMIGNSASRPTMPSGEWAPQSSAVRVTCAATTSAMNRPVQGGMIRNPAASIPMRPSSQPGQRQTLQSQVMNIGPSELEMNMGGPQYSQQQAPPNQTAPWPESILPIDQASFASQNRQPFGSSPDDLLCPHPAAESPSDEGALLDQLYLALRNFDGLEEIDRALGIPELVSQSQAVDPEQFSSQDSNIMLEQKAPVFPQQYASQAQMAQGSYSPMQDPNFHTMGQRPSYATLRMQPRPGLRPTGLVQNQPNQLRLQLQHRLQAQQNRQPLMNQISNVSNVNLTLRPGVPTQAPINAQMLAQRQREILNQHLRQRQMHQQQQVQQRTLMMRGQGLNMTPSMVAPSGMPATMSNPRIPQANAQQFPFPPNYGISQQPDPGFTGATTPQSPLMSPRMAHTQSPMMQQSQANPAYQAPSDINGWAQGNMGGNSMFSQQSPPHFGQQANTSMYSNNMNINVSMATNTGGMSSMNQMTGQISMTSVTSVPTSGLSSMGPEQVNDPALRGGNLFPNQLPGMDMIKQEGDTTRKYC
# [4] = molecular target: Mitogen-activated protein kinase 10 (Homo sapiens, UniProt P53779); assay: Dose response biochemical screening assay for inhibitors of c-Jun N-Terminal Kinase 3 (JNK3). [Related pubchem assays: 746 ]
# Vero [5] = assay: cells; assay type: functional; conditions: Chlorocebus sabaeus
# SUMO-activating enzyme [6] = molecular target: T1, SUMO-activating enzyme (Homo sapiens, UniProt Q9UBT2); assay: SUMOylation inhibitor hit validation, confirmation, SUMOylation inhibitor project, biochemical, AlphaScreen (AID 2018); assay type: functional
# [7] = molecular target: T2, Heat shock factor protein 1 (Mus musculus, UniProt P38532); assay: HSF1 potentiators in luciferase reporter cells, confirmation, cell-based, NIH3T3, luminescence, dose retest (AID 435004); assay type: functional;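 further: stress induced by proteasome inhibitor MG132 added 30 min after compound; luciferase reporter driven by HSF1 response element in NIH3T3 cells; actives raise luminescence as potentiators of the MG132 stress response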
# T2 sequence (P38532 whole entry): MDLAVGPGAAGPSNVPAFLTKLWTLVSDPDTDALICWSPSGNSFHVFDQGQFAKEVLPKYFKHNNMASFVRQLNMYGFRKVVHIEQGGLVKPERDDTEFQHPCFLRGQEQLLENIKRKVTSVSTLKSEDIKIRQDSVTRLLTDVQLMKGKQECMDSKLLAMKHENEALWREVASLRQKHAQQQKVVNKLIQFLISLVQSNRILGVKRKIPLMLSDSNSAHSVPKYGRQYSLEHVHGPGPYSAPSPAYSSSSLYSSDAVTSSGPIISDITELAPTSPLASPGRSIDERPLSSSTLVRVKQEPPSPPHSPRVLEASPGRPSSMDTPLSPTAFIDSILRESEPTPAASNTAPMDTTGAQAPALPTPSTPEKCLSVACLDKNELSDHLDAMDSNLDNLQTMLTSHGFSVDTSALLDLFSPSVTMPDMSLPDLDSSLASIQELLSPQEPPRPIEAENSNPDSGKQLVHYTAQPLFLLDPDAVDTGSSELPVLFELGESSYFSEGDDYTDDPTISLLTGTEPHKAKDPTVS
# Vero [8] = assay: Vero cell cytotoxicity, cytotoxicity control for flavivirus capping enzyme inhibitors (AID 588742); assay type: functional; conditions: Chlorocebus sabaeus
# SUMO-activating enzyme [9] = molecular target: T1, SUMO-activating enzyme; assay: inhibitors of in vitro SUMOylation cascade, primary screen, biochemical, HTRF, uHTS (AID 2006); assay type: protein-complex assay
# Genome polyprotein = Genome polyprotein (dengue virus type 2, UniProt P29990); assay: Dengue-2 NS5 methyltransferase inhibitors, primary screen, biochemical, confirmation dose response (AID 588689); assay type: functional
# [10] = molecular target: Induced myeloid leukemia cell differentiation protein Mcl-1 (Homo sapiens, UniProt Q07820); assay type: functional
# Large T antigen = Large T antigen (Simian virus 40, UniProt P03070); assay type: functional, Betapolyomavirus macacae;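 further: Confirmatory-stage PubChem screen for compounds that inhibit SV40 T antigen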
# [11] = molecular target: DNA (cytosine-5)-methyltransferase 1 (Homo sapiens, UniProt P26358); assay: DNMT1 methyltransferase inhibitors, confirmation, biochemical, fluorescent molecular beacon (AID 602386); assay type: functional
# [12] = molecular target: T3, Microphthalmia-associated transcription factor (Homo sapiens, UniProt O75030); assay: TRPM1 promoter luciferase signal decrease, dose response, MITF inhibitor project, cell-based, SK-MEL-5, cherry-picked, set 3 (AID 493073); assay type: functional
# T3 sequence (O75030 whole entry): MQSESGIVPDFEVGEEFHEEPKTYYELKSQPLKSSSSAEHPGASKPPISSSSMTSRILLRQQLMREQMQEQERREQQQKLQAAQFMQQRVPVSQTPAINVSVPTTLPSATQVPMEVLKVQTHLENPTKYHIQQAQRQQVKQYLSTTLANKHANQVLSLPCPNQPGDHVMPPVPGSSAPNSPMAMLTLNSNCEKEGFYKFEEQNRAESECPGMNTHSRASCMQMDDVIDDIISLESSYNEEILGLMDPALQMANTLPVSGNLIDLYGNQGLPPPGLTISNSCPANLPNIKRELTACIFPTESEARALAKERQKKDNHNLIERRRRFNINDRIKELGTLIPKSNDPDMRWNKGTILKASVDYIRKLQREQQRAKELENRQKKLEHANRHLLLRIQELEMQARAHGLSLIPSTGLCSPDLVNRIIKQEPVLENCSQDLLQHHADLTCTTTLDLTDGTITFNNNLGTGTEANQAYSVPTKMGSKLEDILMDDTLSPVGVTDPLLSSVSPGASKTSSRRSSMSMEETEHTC
# CAAX prenyl protease 2 [13] = molecular target: T4, CAAX prenyl protease 2 (Saccharomyces cerevisiae S288c, UniProt Q03530); assay type: biochemical
# T4 sequence (Q03530 whole entry): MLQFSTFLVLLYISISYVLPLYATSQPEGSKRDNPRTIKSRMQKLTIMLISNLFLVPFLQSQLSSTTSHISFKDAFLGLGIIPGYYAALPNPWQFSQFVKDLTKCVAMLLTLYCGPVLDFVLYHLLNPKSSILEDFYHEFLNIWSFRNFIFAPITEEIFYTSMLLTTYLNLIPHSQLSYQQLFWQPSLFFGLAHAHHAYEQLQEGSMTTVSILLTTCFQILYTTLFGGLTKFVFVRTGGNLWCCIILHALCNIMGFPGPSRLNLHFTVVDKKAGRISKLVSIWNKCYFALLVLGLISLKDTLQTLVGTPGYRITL
# [14] = molecular target: Voltage-dependent T-type calcium channel subunit alpha-1H (Homo sapiens, UniProt O95180); assay type: functional;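 further: channel activity triggered by adding a high calcium stimulation buffer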
# CAAX prenyl protease 2 [15] = molecular target: T5, CAAX prenyl protease 2 (Homo sapiens, UniProt Q9Y256); assay: human Rce1 protease inhibitors, dose response, biochemical, yeast membranes, quenched-peptide fluorescence, cherry-pick (AID 588849)
# T5 sequence (Q9Y256 whole entry): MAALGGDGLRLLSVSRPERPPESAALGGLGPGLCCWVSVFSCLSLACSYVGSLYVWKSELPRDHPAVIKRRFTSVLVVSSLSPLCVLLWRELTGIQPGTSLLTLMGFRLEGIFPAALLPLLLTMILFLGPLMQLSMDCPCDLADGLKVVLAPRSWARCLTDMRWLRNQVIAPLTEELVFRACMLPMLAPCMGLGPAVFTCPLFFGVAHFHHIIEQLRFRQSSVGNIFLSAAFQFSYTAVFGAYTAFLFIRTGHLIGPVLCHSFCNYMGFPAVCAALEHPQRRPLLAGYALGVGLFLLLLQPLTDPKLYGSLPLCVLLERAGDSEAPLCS
# [16] = mammalian cell cytotoxicity, dose response, cytotoxicity control, plate reader, cherry-pick samples (AID 504397); assay type: functional, cell-based
# Albumin = Albumin (Bos taurus, UniProt P02769); assay: Counterscreen for inhibitors of T-cell receptor (TCR)-CD3 interaction: Fluorescence-based biochemical high throughput dose response assay to identify inhibitors of T-cell receptor (TCR)-CD3 interaction using a TAMRA-labeled BSA probe.; assay type: functional
# [17] = molecular target: Lysine-specific demethylase 4C (Homo sapiens, UniProt Q9H3R0); assay: GASC-1 (JMJD2C) histone demethylase inhibitors, dose response, biochemical, DELFIA europium, cherry-picked samples (AID 488835); assay type: functional
# Chain of Lysine-specific demethylase 4C (Q9H3R0 whole entry): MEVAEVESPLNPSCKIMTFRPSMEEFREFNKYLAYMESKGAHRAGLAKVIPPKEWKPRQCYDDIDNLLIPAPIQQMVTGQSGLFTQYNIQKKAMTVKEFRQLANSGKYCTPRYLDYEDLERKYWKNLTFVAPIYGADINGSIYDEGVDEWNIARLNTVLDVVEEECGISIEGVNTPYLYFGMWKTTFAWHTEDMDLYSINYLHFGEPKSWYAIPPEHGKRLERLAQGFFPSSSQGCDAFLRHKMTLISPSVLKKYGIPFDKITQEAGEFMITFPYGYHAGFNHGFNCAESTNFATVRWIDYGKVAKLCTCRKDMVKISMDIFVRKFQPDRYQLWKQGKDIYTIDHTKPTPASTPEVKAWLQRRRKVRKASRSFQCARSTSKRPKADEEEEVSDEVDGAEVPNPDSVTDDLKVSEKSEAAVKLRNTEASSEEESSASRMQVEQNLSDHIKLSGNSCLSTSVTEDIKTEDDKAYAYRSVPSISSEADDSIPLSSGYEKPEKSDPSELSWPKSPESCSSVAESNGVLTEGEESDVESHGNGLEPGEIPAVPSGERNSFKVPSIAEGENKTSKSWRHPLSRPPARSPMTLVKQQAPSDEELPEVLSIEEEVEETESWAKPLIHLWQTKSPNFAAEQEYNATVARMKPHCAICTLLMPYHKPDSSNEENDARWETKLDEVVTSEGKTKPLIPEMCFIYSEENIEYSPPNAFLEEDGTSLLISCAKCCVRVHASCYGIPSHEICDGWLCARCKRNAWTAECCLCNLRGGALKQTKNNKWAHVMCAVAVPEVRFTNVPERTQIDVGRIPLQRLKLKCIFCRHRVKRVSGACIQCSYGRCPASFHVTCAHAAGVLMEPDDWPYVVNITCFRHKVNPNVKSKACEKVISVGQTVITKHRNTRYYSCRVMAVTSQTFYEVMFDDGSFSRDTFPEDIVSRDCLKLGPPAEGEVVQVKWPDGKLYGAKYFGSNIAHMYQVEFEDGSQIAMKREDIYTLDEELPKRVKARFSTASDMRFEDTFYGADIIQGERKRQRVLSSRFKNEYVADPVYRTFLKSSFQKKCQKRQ
# Protein skinhead-1 = molecular target: T6, Protein skinhead-1 (Caenorhabditis elegans, UniProt P34707); assay type: functional
# T6 sequence (P34707 whole entry): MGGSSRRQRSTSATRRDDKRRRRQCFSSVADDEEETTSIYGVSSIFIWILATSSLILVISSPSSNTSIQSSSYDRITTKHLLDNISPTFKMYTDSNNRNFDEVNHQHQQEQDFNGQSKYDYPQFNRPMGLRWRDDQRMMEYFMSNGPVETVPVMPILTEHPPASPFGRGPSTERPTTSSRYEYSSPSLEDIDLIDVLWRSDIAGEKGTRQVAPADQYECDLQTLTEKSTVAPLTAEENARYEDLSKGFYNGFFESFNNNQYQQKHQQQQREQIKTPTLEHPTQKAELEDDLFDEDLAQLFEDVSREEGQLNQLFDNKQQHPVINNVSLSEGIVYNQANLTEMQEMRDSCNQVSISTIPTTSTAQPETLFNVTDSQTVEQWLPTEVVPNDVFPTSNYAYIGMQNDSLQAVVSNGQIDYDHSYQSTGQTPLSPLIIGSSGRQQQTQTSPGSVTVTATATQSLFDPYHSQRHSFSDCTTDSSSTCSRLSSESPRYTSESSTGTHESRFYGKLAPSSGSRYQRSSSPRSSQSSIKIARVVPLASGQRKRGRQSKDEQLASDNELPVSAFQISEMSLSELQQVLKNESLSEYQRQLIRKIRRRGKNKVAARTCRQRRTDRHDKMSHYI
# [18] = molecular target: UDP-galactopyranose mutase (Mycobacterium tuberculosis, UniProt P9WIQ1); assay: Inhibitors of Mycobacterium tuberculosis UDP-galactopyranose mutase (UGM) enzyme Measured in Biochemical System Using Plate Reader - 2105-02_Inhibitor_Dose_CherryPick_Activity. [Related pubchem assays (depositor defined):AID504439]
# [19] = THP-1 cell cytotoxicity, dose response, cytotoxicity control for Vif-APOBEC3G degradation inhibitor project, THP-1 cells (AID 1117359); assay type: functional; conditions: Human immunodeficiency virus 1, THP-1
# [20] = molecular target: Hepatocyte nuclear factor 4-alpha (Homo sapiens, UniProt P41235); assay type: functional, cell-based;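 further: biochemical luminescence-based dose-response counterscreen measuring inhibition of HNF4 dimerization, run alongside a screen for blockers of ABHD5–perilipin-5 interaction; split luciferase complementation of HNF4 fusion proteins in cell lysate measuring dimerization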
structure (smiles),measurement,setting,value
CCOC(=O)CCC(NC(=O)c1ccc(NCN2C(=O)c3ccccc3C2=O)cc1)C(=O)OCC (centres undefined),EC50,[1],> 79.4 µM (not active)
same,EC50,[2],> 79.4 µM (inactive)
same,EC50,[3],> 79.4 µM (not active)
same,IC50,[4],13.1 µM (not active)
O=C1NC(=S)NC(=O)C1=Cc1cccn1-c1ccc(O)cc1,CC50,Vero [5],23 µM (active)
same,IC50,SUMO-activating enzyme [6],7.4 µM (active)
same,EC50,[7],10.6 µM (active)
same,CC50,Vero [8],34.8 µM (active)
same,IC50,SUMO-activating enzyme [9],21.9 µM (active)
same,IC50,Genome polyprotein,34.2 µM (active)
same,IC50,[10],4.45 µM (active)
same,IC50,Large T antigen,30.3 µM (active)
same,IC50,[11],4.82 µM (active)
same,AC50,[12],11.4 µM (active)
O=C(Nc1ccc(S(=O)(=O)Nc2ccccc2)cc1)C1COc2ccccc2O1 (centres undefined),AC50,CAAX prenyl protease 2 [13],4.26 µM (active)
same,EC50,[14],3.37 µM (active)
same,AC50,CAAX prenyl protease 2 [15],65.5 µM (active)
same,AC50,[16],120 µM (active)
O=C(NNC(=O)C1CCN(S(=O)(=O)c2ccccc2)CC1)c1ccccc1O,IC50,Albumin,> 94.1 µM (inactive)
same,AC50,[17],6.67 µM (active)
Brc1cc(Br)c2nc(-c3cccs3)ccc2c1,EC50,[1],47.9 µM (not active)
same,EC50,[2],34.7 µM (inactive)
same,EC50,[3],30 µM (not active)
same,IC50,Protein skinhead-1,> 100 µM (inactive)
Cc1cc(C(C)(C)C)cc(S(=O)(=O)Nc2ccc(C(=O)O)cc2)c1C,AC50,[18],0.201 µM (active)
O=C1NC(=O)N(Cc2ccc(F)cc2)C(=O)/C1=C\C=C\c1ccco1,CC50,[19],28.9 µM (active)
same,IC50,[20],1.87 µM (active)
same,AC50,[17],7.02 µM (active)
same,AC50,[12],6.63 µM (active)
